According to the supplement of paper PMC10307832:

Assays:
Experiment in all cases: relative viability (nuclei count vs DMSO), 5 days (fraction); higher = more cells survive
[1] = test system: UMC-11
Summary of the method: (§1)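 Medians of duplicate plates are given as relative viability. That measure is the nuclei count in treated wells divided by the count in vehicle wells. Counts were taken on 4× images of lung cancer cell lines in 1536-well plates, 5 days after pin-tool dosing the day after seeding with one drug alone or a fixed anchor-drug dose plus five library-drug doses (not always all listed) in √10 steps.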

[2] = test system: NCI-H1666
Summary of the method: as §1

[3] = test system: LXF-289
Summary of the method: as §1

[4] = test system: NCI-H1651
Summary of the method: as §1

[5] = test system: PC-3 [JPC-3]
Summary of the method: as §1

[6] = test system: LU99A
Summary of the method: as §1

[7] = test system: HCC-15
Summary of the method: as §1

[8] = test system: BEN
Summary of the method: as §1

[9] = test system: NCI-H838
Summary of the method: as §1

[10] = test system: SK-MES-1
Summary of the method: as §1

[11] = test system: LCLC-97TM1
Summary of the method: as §1

[12] = test system: NCI-H650
Summary of the method: as §1

[13] = test system: NCI-H2087
Summary of the method: as §1

[14] = test system: LC-2-ad
Summary of the method: as §1

[15] = test system: LK-2
Summary of the method: as §1

[16] = test system: NCI-H661
Summary of the method: as §1

[17] = test system: NCI-H1944
Summary of the method: as §1

[18] = test system: NCI-H358
Summary of the method: as §1

[19] = test system: ChaGo-K-1
Summary of the method: as §1

[20] = test system: HCC-78
Summary of the method: as §1

[21] = test system: NCI-H596
Summary of the method: as §1

[22] = test system: NCI-H322M
Summary of the method: as §1

O=C(O)c1ccc(-c2c[nH]c3ncc(-c4ccccc4)cc23)cc1C1CCCC1 + C[C@@H](Oc1cc(-c2cnn(C3CCNCC3)c2)cnc1N)c1c(Cl)ccc(F)c1Cl [Crizotinib] (partner 1 µM)
relative viability ([1]; first compound 0.04 µM): 0.587 | relative viability ([1]; first compound 0.1265 µM): 0.629 | relative viability ([1]; first compound 0.4 µM): 0.646 | relative viability ([1]; first compound 1.265 µM): 0.612 | relative viability ([2]; first compound 0.04 µM): 1.03 | relative viability ([2]; first compound 0.1265 µM): 0.991 | relative viability ([2]; first compound 0.4 µM): 0.812 | relative viability ([2]; first compound 1.265 µM): 0.365 | relative viability ([3]; first compound 0.04 µM): 0.741 | relative viability ([3]; first compound 0.1265 µM): 0.772 | relative viability ([3]; first compound 0.4 µM): 0.594 | relative viability ([3]; first compound 1.265 µM): 0.285 | relative viability ([4]; first compound 0.04 µM): 0.852 | relative viability ([4]; first compound 0.1265 µM): 0.929 | relative viability ([4]; first compound 0.4 µM): 0.822 | relative viability ([4]; first compound 1.265 µM): 0.742 | relative viability ([5]; first compound 0.04 µM): 0.963 | relative viability ([5]; first compound 0.1265 µM): 1.03 | relative viability ([5]; first compound 0.4 µM): 0.968 | relative viability ([5]; first compound 1.265 µM): 0.832 | relative viability ([6]; first compound 0.04 µM): 0.539 | relative viability ([6]; first compound 0.1265 µM): 0.678 | relative viability ([6]; first compound 0.4 µM): 0.503 | relative viability ([6]; first compound 1.265 µM): 0.486 | relative viability ([7]; first compound 0.04 µM): 0.845 | relative viability ([7]; first compound 0.1265 µM): 0.79 | relative viability ([7]; first compound 0.4 µM): 0.633 | relative viability ([7]; first compound 1.265 µM): 0.339 | relative viability ([8]; first compound 0.04 µM): 0.89 | relative viability ([8]; first compound 0.1265 µM): 0.996 | relative viability ([8]; first compound 0.4 µM): 0.885 | relative viability ([8]; first compound 1.265 µM): 0.774 | relative viability ([9]; first compound 0.04 µM): 0.794 | relative viability ([9]; first compound 0.1265 µM): 0.952 | relative viability ([9]; first compound 0.4 µM): 0.848 | relative viability ([9]; first compound 1.265 µM): 0.88 | relative viability ([10]; first compound 0.04 µM): 0.942 | relative viability ([10]; first compound 0.1265 µM): 1.01 | relative viability ([10]; first compound 0.4 µM): 0.953 | relative viability ([10]; first compound 1.265 µM): 0.774 | relative viability ([11]; first compound 0.04 µM): 0.376 | relative viability ([11]; first compound 0.1265 µM): 0.329 | relative viability ([11]; first compound 0.4 µM): 0.234 | relative viability ([11]; first compound 1.265 µM): 0.326 | relative viability ([12]; first compound 0.04 µM): 0.762 | relative viability ([12]; first compound 0.1265 µM): 0.844 | relative viability ([12]; first compound 0.4 µM): 0.561 | relative viability ([12]; first compound 1.265 µM): 0.465 | relative viability ([13]; first compound 0.04 µM): 0.853 | relative viability ([13]; first compound 0.1265 µM): 0.75 | relative viability ([13]; first compound 0.4 µM): 0.833 | relative viability ([13]; first compound 1.265 µM): 0.723 | relative viability ([14]; first compound 0.04 µM): 0.496 | relative viability ([14]; first compound 0.1265 µM): 0.452 | relative viability ([14]; first compound 0.4 µM): 0.412 | relative viability ([14]; first compound 1.265 µM): 0.364 | relative viability ([15]; first compound 0.04 µM): 0.31 | relative viability ([15]; first compound 0.1265 µM): 0.202 | relative viability ([15]; first compound 0.4 µM): 0.291 | relative viability ([15]; first compound 1.265 µM): 0.198 | relative viability ([16]; first compound 0.1265 µM): 0.963 | relative viability ([16]; first compound 0.4 µM): 0.967 | relative viability ([16]; first compound 1.265 µM): 1.03 | relative viability ([17]; first compound 0.04 µM): 1.03 | relative viability ([17]; first compound 0.1265 µM): 1.14 | relative viability ([17]; first compound 0.4 µM): 1.08 | relative viability ([17]; first compound 1.265 µM): 1.01 | relative viability ([18]; first compound 0.04 µM): 0.633 | relative viability ([18]; first compound 0.1265 µM): 0.579 | relative viability ([18]; first compound 0.4 µM): 0.512 | relative viability ([18]; first compound 1.265 µM): 0.352 | relative viability ([19]; first compound 0.04 µM): 1.11 | relative viability ([19]; first compound 0.1265 µM): 1.1 | relative viability ([19]; first compound 0.4 µM): 1.04 | relative viability ([19]; first compound 1.265 µM): 0.846 | relative viability ([20]; first compound 0.04 µM): 0.338 | relative viability ([20]; first compound 0.1265 µM): 0.381 | relative viability ([20]; first compound 0.4 µM): 0.328 | relative viability ([20]; first compound 1.265 µM): 0.293 | relative viability ([21]; first compound 0.04 µM): 1 | relative viability ([21]; first compound 0.1265 µM): 1.09 | relative viability ([21]; first compound 0.4 µM): 0.909 | relative viability ([21]; first compound 1.265 µM): 1 | relative viability ([22]; first compound 0.04 µM): 0.943 | relative viability ([22]; first compound 0.1265 µM): 0.918 | relative viability ([22]; first compound 0.4 µM): 1.01 | relative viability ([22]; first compound 1.265 µM): 0.839
